Legend:
HCT-116 [1] = assay: Cytotoxicity against human HCT116 cells assessed as growth inhibition after 72 hrs by MTS assay; type: functional, cell-based; conditions: HCT-116, 72 h
MCF7 = assay: Cytotoxicity against human MCF7 cells assessed as growth inhibition after 72 hrs by MTS assay; type: functional, cell-based; conditions: MCF7, 72 h
HCT-116 [2] = assay: Ratio of cis-platin IC50 to compound IC50 for growth inhibition of human HCT116 cells; type: functional

| SMILES | IC50 (HCT-116 [1]) [µM] | IC50 (MCF7) [µM] | Ratio IC50 (HCT-116 [2]) |
| --- | --- | --- | --- |
| C=C1CC[C@H]2[C@@](C)(CC[C@@H](O)[C@@]2(C)C(=O)O)[C@@H]1C/C=C1/C(=O)OC[C@H]1OC(=O)/C=C/c1ccc(OC)cc1 | 1.92 | 8.86 |  |
| C=C1CC[C@H]2[C@@](C)(CC[C@@H](OC(C)=O)[C@@]2(C)C(=O)O)[C@@H]1C/C=C1/C(=O)OC[C@H]1OC(C)=O | 2.19 | > 4.1 |  |
| C=C1CC[C@H]2[C@@](C)(CC[C@@H](OC(C)=O)[C@@]2(C)C(=O)O)[C@@H]1C/C=C1/C(=O)OC[C@H]1OC(=O)c1ccccc1 | 17.8 | 38.2 |  |
| C=C1CC[C@H]2[C@@](C)(CC[C@@H](OC(C)=O)[C@@]2(C)C(=O)O)[C@@H]1C/C=C1/C(=O)OC[C@H]1OC(=O)/C=C/c1ccc(OC)cc1 | 9.73 | 33.9 |  |
| C=C1CC[C@H]2[C@@](C)(CC[C@@H](OC(C)=O)[C@@]2(C)C(=O)OC)[C@@H]1C/C=C1/C(=O)OC[C@H]1OC(C)=O | 2.02 | 6.4 |  |
| C=C1CC[C@H]2[C@@](C)(CC[C@@H](OC(C)=O)[C@@]2(C)C(=O)OCc2ccccc2)[C@@H]1C/C=C1/C(=O)OC[C@H]1OC(C)=O | 1.07 | 6.28 |  |
| C=C1CC[C@H]2[C@@](C)(CC[C@@H](OC(C)=O)[C@@]2(C)C(=O)OC)[C@@H]1C/C=C1/C(=O)OC[C@H]1OC(=O)c1ccccc1 | 3.01 | 10.6 |  |
| C=C1CC[C@H]2[C@@](C)(CC[C@@H](OC(C)=O)[C@@]2(C)C(=O)OCc2ccccc2)[C@@H]1C/C=C1/C(=O)OC[C@H]1OC(=O)c1ccccc1 | 1.18 | 8.37 | 11 |
| C=C1CC[C@H]2[C@@](C)(CC[C@@H](OC(C)=O)[C@@]2(C)C(=O)OC)[C@@H]1C/C=C1/C(=O)OC[C@H]1OC(=O)/C=C/c1ccc(OC)cc1 | 2.78 | 14.5 |  |
| C=C1CC[C@H]2[C@@](C)(CC[C@@H](OC(C)=O)[C@@]2(C)C(=O)OCc2ccccc2)[C@@H]1C/C=C1/C(=O)OC[C@H]1OC(=O)/C=C/c1ccc(OC)cc1 | 2.83 | 6.13 |  |
| C=C1CC[C@H]2[C@@](C)(CC[C@@H](O)[C@@]2(C)C(=O)O)[C@@H]1C/C=C1/C(=O)OC[C@H]1OC(C)=O | 25.2 | 33.3 |  |
| C=C1CC[C@H]2[C@@](C)(CC[C@@H](O)[C@@]2(C)C(=O)O)[C@@H]1C/C=C1/C(=O)OC[C@H]1OC(=O)c1ccccc1 | 13.8 | > 40.2 |  |
| C=C1CC[C@@H]2[C@](C)(CO)[C@H](O)CC[C@@]2(C)[C@@H]1C/C=C1/C(=O)OC[C@H]1O [ANDROGRAPHOLIDE] | 23.9 | > 66 |  |

Source: ChEMBL document CHEMBL2390939, “Synthesis and in vitro cytotoxicity of andrographolide-19-oic acid analogues as anti-cancer agents” (Bioorg Med Chem Lett, 2013)
